Patent publication US9823260B2, “Method to increase bioavailability of the delta-opioid receptor for management of pain and neuropsychiatric disorders” (priority 2014, dated 2017)

What was measured:
Assay type in all cases: in vivo
male C57BL6J mice [1] = assay: Warm water tail withdrawal assay (thermal nociception)
Protocol: (§1) The first three graphs in FIG. 2 show the function response of DOR on the surface. An EPAC FRET sensor was used with live cell imaging under physiologic conditions of 37° C. The modulation of the cAMP activity was determined by performing a ratiometric analysis of an the donor fluorophore (Cyan Fluorescent Protein) image divided by the FRET image yielding a blue color for low cAMP and red for high cAMP. DOR was concomitantly visualized by fluorescent tagging. […] The two images on the bottom-right of FIG. 2 show data in an experiment in which mechanical allodynia and tail withdrawal latency was performed in male C57BL6J mice 9-10 weeks old to determine the effects of the DOR agonist SNC-80 in the presence or absence of PTEN inhibition. […] All mice received SNC-80 (10 mg/kg IP). Additionally, pretreatment of mice with the PTEN inhibitor bpv(Phen) increased the antinociceptive effect of the DOR agonist SNC-80. Together, these methods can be used for stimulated DOR delivery as a convergent strategy for improving the efficacy of DOR agonists.
In this experiment, thermal nociception was determined by using the warm water tail withdrawal assay, with a cut-off of 12 s at 52.5° C. water temperature. After 3 basal measurements, mice were injected with vehicle or bpv(phen)(10 mg/kg SC), and returned to their home cages. […] They were subsequently tested every 15 minutes for 90 minutes. All animals were male C57b16J mice of 9-10 weeks of age, n=8 per group. […] Mechanical allodynia was tested using standard protocols (such as the protocols disclosed by Pradhan et al., 2009, PMID: 1941254) on male C57b16J mice 9-10 weeks old, n=8 per group. Mice were injected with vehicle or bpv(phen)(10 mg/kg), and tested four hours after for reduced allodynia in response to SNC-80. […] Mechanical hyperalgesia was tested in a CFA model for chronic pain. […]
As shown next in FIG. 12 (left), thermal nociception was determined by using the warm water tail withdrawal assay, with a cut-off of 12 s at 52.5° C. water temperature. […]

male C57BL6J mice [2] = assay: Mechanical allodynia test
Protocol: as §1, with “Additionally, pretreatment of mice with the PTEN inhibitor bpv(Phen) increased the antinociceptive effect of the DOR agonist SNC-80. Together, these methods can be used for stimulated DOR delivery as a convergent strategy for improving the efficacy of DOR agonists.” left out
(§2) In this experiment, thermal nociception was determined by using the warm water tail withdrawal assay, with a cut-off of 12 s at 52.5° C. water temperature. […] Four hours post-injection, tail immersion responses were determined and mice were injected with vehicle or SNC80 (10 mg/kg IP). […]
as §2, with “As shown next in FIG. 12 (left),” for “In this experiment,”

mice = assay: Mechanical hyperalgesia in a CFA model for chronic pain; settings: CFA 72 hours; bpv(phen) 10 mg/kg SC, four hours later SNC 80 3 mg/kg IP
Protocol: In this experiment, thermal nociception was determined by using the warm water tail withdrawal assay, with a cut-off of 12 s at 52.5° C. water temperature. After 3 basal measurements, mice were injected with vehicle or bpv(phen)(10 mg/kg SC), and returned to their home cages. Four hours post-injection, tail immersion responses were determined and mice were injected with vehicle or SNC80 (10 mg/kg IP). They were subsequently tested every 15 minutes for 90 minutes. All animals were male C57b16J mice of 9-10 weeks of age, n=8 per group. […] Mechanical allodynia was tested using standard protocols (such as the protocols disclosed by Pradhan et al., 2009, PMID: 1941254) on male C57b16J mice 9-10 weeks old, n=8 per group. Mice were injected with vehicle or bpv(phen)(10 mg/kg), and tested four hours after for reduced allodynia in response to SNC-80. […] Mechanical hyperalgesia was tested in a CFA model for chronic pain. After baseline recordings, mice were injected with CFA (13 μl, intraplantar) and were tested 72 hours later. On the test day, mice received either bpv(phen)(10 mg/kg SC) or vehicle. […]
as §2, with “As shown next in FIG. 12 (left),” for “In this experiment,”

[3] = 2 hour pretreatment with bpV(phen) 10 mg/kg, SNC-80 10 mg/kg IP, versus vehicle

O.O.O.OO.OO.[K+].[OH-].[V].c1cnc2c(c1)ccc1cccnc12 [bpV(phen)]
tail withdrawal latency with SNC-80 (male C57BL6J mice [1]; [3]): increased compared to vehicle control treated mice | analgesic response to PTEN inhibition alone (male C57BL6J mice [1]; bpV(phen) without SNC-80, mechanical allodynia and tail withdrawal): did not induce an analgesic response | tail immersion response versus baseline without SNC80 (male C57BL6J mice [1]; vehicle or bpv(phen) 10 mg/kg SC, no SNC80, 52.5° C., tested every 15 minutes for 90 minutes): did not show any significant deviation from the baseline | mechanical allodynia (threshold) with SNC-80 (male C57BL6J mice [2]; [3]): increased compared to vehicle control treated mice | reduced allodynia in response to SNC-80 (male C57BL6J mice [2]; bpv(phen) 10 mg/kg, tested four hours after): showed a response | mechanical hyperalgesia response to SNC 80 (mice): showed a response to SNC80
